Test results taken from PMC9352230 (ACS Omega, 2022).

Assays:
[1] = target: T1, ENPP1 (Homo sapiens, UniProt P22413); test: ENPP1 enzyme inhibition assay; type: biochemical; conditions: for inhibition at 100 µM: read-out: ENPP1 % inhibition ± SD
T1 sequence (P22413 1-925): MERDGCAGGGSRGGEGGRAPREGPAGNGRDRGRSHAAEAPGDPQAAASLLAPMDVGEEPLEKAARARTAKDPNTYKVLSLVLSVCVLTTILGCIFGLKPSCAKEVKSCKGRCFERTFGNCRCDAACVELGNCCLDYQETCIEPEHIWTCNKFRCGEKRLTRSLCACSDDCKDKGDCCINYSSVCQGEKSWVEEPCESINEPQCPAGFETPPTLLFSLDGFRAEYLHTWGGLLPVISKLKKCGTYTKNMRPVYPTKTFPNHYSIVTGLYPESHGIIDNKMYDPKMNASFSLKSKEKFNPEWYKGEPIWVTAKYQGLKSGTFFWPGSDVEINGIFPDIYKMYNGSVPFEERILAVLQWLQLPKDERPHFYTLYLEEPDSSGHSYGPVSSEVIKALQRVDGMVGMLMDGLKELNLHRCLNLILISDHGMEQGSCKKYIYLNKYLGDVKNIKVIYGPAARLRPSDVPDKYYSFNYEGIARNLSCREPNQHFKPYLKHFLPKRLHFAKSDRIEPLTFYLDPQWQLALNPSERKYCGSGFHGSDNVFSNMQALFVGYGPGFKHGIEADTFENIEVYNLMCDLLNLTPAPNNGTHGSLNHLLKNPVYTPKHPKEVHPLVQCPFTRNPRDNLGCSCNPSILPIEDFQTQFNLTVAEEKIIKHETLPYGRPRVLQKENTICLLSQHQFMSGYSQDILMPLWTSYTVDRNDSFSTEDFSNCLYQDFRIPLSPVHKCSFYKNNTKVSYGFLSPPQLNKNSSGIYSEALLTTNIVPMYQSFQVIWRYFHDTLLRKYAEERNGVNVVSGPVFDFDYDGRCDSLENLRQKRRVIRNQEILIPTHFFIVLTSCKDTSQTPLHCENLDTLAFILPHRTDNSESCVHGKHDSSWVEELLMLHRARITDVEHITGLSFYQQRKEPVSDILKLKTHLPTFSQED

[2] = target: T2, ENPP3 (Homo sapiens, UniProt O14638); test: ENPP3 enzyme inhibition assay; type: biochemical; conditions: for inhibition at 100 µM: read-out: ENPP3 % inhibition ± SD
T2 sequence (O14638 1-875): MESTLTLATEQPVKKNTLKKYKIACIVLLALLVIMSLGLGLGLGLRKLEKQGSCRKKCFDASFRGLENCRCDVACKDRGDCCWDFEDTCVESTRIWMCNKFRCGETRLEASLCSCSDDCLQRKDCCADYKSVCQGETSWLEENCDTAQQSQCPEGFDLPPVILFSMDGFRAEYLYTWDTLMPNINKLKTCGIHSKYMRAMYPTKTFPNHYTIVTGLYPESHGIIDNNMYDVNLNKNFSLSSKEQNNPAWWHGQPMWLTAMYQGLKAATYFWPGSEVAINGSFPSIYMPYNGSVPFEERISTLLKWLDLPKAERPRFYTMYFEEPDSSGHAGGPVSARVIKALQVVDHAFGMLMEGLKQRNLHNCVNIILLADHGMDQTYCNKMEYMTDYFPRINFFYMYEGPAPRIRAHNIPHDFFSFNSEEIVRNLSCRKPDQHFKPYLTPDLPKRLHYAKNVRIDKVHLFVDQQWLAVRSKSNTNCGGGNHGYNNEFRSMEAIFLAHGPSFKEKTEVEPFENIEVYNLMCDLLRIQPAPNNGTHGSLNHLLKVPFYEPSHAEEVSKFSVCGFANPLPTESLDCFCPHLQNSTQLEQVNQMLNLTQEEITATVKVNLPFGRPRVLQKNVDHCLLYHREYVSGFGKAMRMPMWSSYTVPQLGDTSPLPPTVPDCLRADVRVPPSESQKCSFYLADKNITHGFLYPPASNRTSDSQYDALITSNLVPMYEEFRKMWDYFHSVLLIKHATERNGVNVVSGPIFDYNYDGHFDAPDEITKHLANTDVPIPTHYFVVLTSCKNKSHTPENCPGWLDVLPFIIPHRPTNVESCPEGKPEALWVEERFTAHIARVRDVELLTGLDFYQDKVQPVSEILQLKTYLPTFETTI

[3] = system: MCF7 (human breast cancer cell line); test: MTT cytotoxicity assay, MCF7; type: cell-based; conditions: MCF7, 24 h, read-out: MCF7 (% inhibition ±SD)
[4] = system: HEK293 (human embryonic kidney cell line); test: MTT cytotoxicity assay, HEK293; type: cell-based; conditions: Homo sapiens, HEK293, 24 h, read-out: HEK293 (% inhibition ±SD)
[5] = system: ENPP1; conditions: read-out: ENPP1 IC50; selective inhibitor of ENPP1; cited from earlier work

| SMILES | IC50 [1] [nM] | IC50 [2] [nM] | inhibition at 100 µM [2] [%] | inhibition at 100 µM [1] [%] | inhibition at 100 µM [3] [%] | inhibition at 100 µM [4] [%] | IC50 [5] [nM] |
| --- | --- | --- | --- | --- | --- | --- | --- |
| Cc1ccc(C(=O)Nc2ccc(OS(=O)(=O)c3ccc(I)cc3)cc2)cc1 [4c, 4-(4-methylbenzamido)phenyl 4-Iodobenzenesulfonate] | 14400 ± 540 | 4230 ± 380 | – | – | 33.2 ± 1.32 | 15.2 ± 0.83 | – |
| CCCc1ccc(S(=O)(=O)Oc2ccc(NC(=O)c3ccc(C)cc3)cc2)cc1 [4f, 4-(4-Methylbenzamido)phenyl 4-Propylbenzenesulfonate] | – | – | 8.4 ± 3.11 | – | 25.7 ± 0.92 | 4.2 ± 0.12 | – |
| CC1(C(=O)Nc2ccc(OS(=O)(=O)C(F)(F)F)cc2)c2ccccc2-c2ccccc21 [7b, 4-(9-Methyl-9H-fluorene-9-carboxamido)phenyl Trifluoromethanesulfonate] | 900 ± 160 | 4160 ± 220 | – | – | 14.1 ± 0.63 | 24.5 ± 1.16 | – |
| CC1(C(=O)Nc2ccc(OS(=O)(=O)c3ccc(F)cc3)cc2)c2ccccc2-c2ccccc21 [7c, 4-(9-Methyl-9H-fluorene-9-carboxamido)phenyl 4-Fluorobenzenesulfonate] | 500 ± 30 | 6690 ± 1890 | – | – | 12.4 ± 1.22 | 9.2 ± 0.42 | – |
| Cc1ccc(C(=O)Nc2ccc(OS(=O)(=O)c3ccccc3F)cc2)cc1 [4l, 4-(4-Methylbenzamido)phenyl 2-Fluorobenzenesulfonate] | 150 ± 10 | 3480 ± 340 | – | – | 0.5 ± 0.03 | 17.4 ± 0.83 | – |
| O=C(NS(=O)(=O)c1ccccc1)n1ccc2cccnc21 [N-(pyrrolo[2,3-b]pyridine-1-carbonyl)benzenesulfonamide] | – | – | – | – | – | – | 4500 ± 160 |
| CC1(C(=O)Nc2ccc(OS(=O)(=O)c3ccccc3F)cc2)c2ccccc2-c2ccccc21 [7a, 4-(9-Methyl-9H-fluorene-9-carboxamido)phenyl 2-Fluorobenzenesulfonate] | 810 ± 50 | – | 28.2 ± 3.22 | – | 12.7 ± 0.62 | 14.6 ± 1.12 | – |
| O=C(Nc1ccc(OS(=O)(=O)Cc2ccccc2)cc1)c1ccccc1 [4n, 4-Benzamidophenyl Phenylmethanesulfonate] | 3960 ± 120 | 4120 ± 50 | – | – | 7.3 ± 0.03 | 5.8 ± 0.23 | – |
| Cc1ccc(C(=O)Nc2ccc(OS(=O)(=O)Cc3ccccc3)cc2)cc1 [4i, 4-(4-Methylbenzamido)phenyl Phenylmethanesulfonate] | 130 ± 10 | – | 46.7 ± 1.54 | – | 5.7 ± 0.06 | 11.2 ± 0.92 | – |
| CC1(C(=O)Nc2ccc(OS(=O)(=O)c3ccccc3)cc2)c2ccccc2-c2ccccc21 [7f, 4-(9-Methyl-9H-fluorene-9-carboxamido)phenyl Benzenesulfonate] | 8450 ± 250 | – | 42.1 ± 2.44 | – | 5.6 ± 1.11 | 6.2 ± 1.17 | – |
| CC1(C(=O)Nc2ccc(OS(C)(=O)=O)cc2)c2ccccc2-c2ccccc21 [7d, 4-(9-Methyl-9H-fluorene-9-carboxamido)phenyl Methanesulfonate] | – | 160 ± 10 | – | 9.2 ± 4.13 | 0.2 ± 0.06 | 5.5 ± 0.36 | – |
| COc1cccc2c1C(=O)c1c(O)c3c(c(O)c1C2=O)C[C@@](O)(C(=O)CO)C[C@@H]3O[C@H]1C[C@H](N)[C@H](O)[C@H](C)O1 [doxorubicin, reference compound] | – | – | – | – | 88.8 ± 2.74 | – | – |

The next lines start with results.

| IC50 [1] [nM] | IC50 [2] [nM] | inhibition at 100 µM [2] [%] | inhibition at 100 µM [1] [%] | SMILES | inhibition at 100 µM [3] [%] | inhibition at 100 µM [4] [%] | IC50 [5] [nM] |
| --- | --- | --- | --- | --- | --- | --- | --- |
| 370 ± 30 | – | 19.5 ± 3.53 | – | O=C(Nc1ccc(OS(=O)(=O)c2cccc3cccnc23)cc1)c1ccccc1 [4q, 4-Benzamidophenyl Quinoline-8-sulfonate] | 11.2 ± 1.04 | 4.6 ± 0.32 | – |
| 5760 ± 570 | 2950 ± 250 | – | – | O=C(Nc1ccc(OS(=O)(=O)c2ccc(F)cc2)cc1)c1ccccc1 [4s, 4-Benzamidophenyl 4-Fluorobenzenesulfonate] | 2.1 ± 0.08 | 20.6 ± 1.14 | – |
| – | 29800 ± 2130 | – | 45.2 ± 1.53 | Cc1ccc(C(=O)Nc2ccc(OS(=O)(=O)c3ccccc3)cc2)cc1 [4b, 4-(4-methylbenzamido)phenyl Benzenesulfonate] | 7.4 ± 0.04 | 6.4 ± 0.22 | – |
| 2010 ± 340 | 530 ± 190 | – | – | O=C(Nc1ccc(OS(=O)(=O)c2ccc(I)cc2)cc1)c1ccccc1 [4r, 4-Benzamidophenyl 4-Iodobenzenesulfonate] | 10.2 ± 0.86 | 11.3 ± 0.71 | – |
| 180 ± 10 | – | 45.7 ± 2.35 | – | COc1ccc(S(=O)(=O)Oc2ccc(NC(=O)c3ccc(C)cc3)cc2)cc1 [4d, 4-(4-Methylbenzamido)phenyl 4-Methoxybenzenesulfonate] | 31.5 ± 2.43 | 13.1 ± 0.73 | – |
| 1730 ± 30 | – | 27.1 ± 4.54 | – | Cc1ccc(C(=O)Nc2ccc(OS(=O)(=O)c3ccc(-c4ccccc4)cc3)cc2)cc1 [4h, 4-(4-Methylbenzamido)phenyl [1,1′-Biphenyl]-4-sulfonate] | 9.1 ± 0.71 | 4.8 ± 0.24 | – |
| – | 820 ± 120 | – | 44.8 ± 1.52 | Cc1ccc(C(=O)Nc2ccc(OS(=O)(=O)c3ccc(Cl)cc3)cc2)cc1 [4e, 4-(4-Methylbenzamido)phenyl 4-Chlorobenzenesulfonate] | 24.2 ± 1.73 | 8.3 ± 0.35 | – |
| 1710 ± 40 | 2120 ± 80 | – | – | CCCc1ccc(S(=O)(=O)Oc2ccc(NC(=O)c3ccccc3)cc2)cc1 [4o, 4-Benzamidophenyl 4-Propylbenzenesulfonate] | 63.2 ± 2.51 | 12.6 ± 0.74 | – |
| 7610 ± 20 | 370 ± 80 | – | – | Cc1ccc(C(=O)Nc2ccc(OS(=O)(=O)c3ccc(F)cc3)cc2)cc1 [4k, 4-(4-Methylbenzamido)phenyl 4-Fluorobenzenesulfonate] | 11.2 ± 0.52 | 2.1 ± 1.22 | – |
| – | 150 ± 40 | – | 41.4 ± 3.24 | O=C(Nc1ccc(OS(=O)(=O)c2ccc(OC(F)(F)F)cc2)cc1)c1ccccc1 [4t, 4-Benzamidophenyl 4-(trifluoromethoxy)benzenesulfonate] | 29.6 ± 1.22 | 8.6 ± 0.14 | – |
| – | – | 17 ± 3.24 | 26.2 ± 2.11 | Cc1ccc(C(=O)Nc2ccc(OS(=O)(=O)c3ccc(C)cc3)cc2)cc1 [4a, 4-(4-Methylbenzamido)phenyl 4-Methylbenzenesulfonate] | 1.1 ± 0.12 | 5.3 ± 0.81 | – |
| 820 ± 50 | – | 22.6 ± 2.12 | – | COc1ccc(S(=O)(=O)Oc2ccc(NC(=O)c3ccccc3)cc2)cc1 [4m, 4-Benzamidophenyl 4-Methoxybenzenesulfonate] | 4.1 ± 0.01 | 2.3 ± 1.12 | – |
| 1510 ± 20 | – | 33.5 ± 1.92 | – | O=C(Nc1ccc(OS(=O)(=O)c2ccc(-c3ccccc3)cc2)cc1)c1ccccc1 [4p, 4-Benzamidophenyl [1,1′-Biphenyl]-4-sulfonate] | 8.4 ± 0.75 | 4.3 ± 0.15 | – |
| 450 ± 70 | 190 ± 20 | – | – | Cc1ccc(C(=O)Nc2ccc(OS(=O)(=O)c3ccc(OC(F)(F)F)cc3)cc2)cc1 [4g, 4-(4-Methylbenzamido)phenyl 4-(Trifluoromethoxy)benzenesulfonate] | 11.7 ± 0.84 | 3.2 ± 0.11 | – |
